# Legend:
# [1] = Fragrance stabilisation test (eau de toilette, daily 37°C / 4°C / sunlight cycle for 7 days, aroma assessed); settings: daily cycle repeated for 7 days
# Experimental: To test the stability of a fragrance in the form of an eau de toilette ("EDT"), we use aliquots of the EDT to which are added two or more concentrations of our melanin ("EDT'') and, as reference examples, two concentrations of BHT (butyrated hydroxytoluene, a known antioxidant used in cosmetics). A further aliquot of the original eau de toilette is used as a control. Test samples are made in clear glass bottles that are half filled with the test samples. This is to allow some penetration of UV light and sufficient gas in the headspace to allow oxidative deterioration of the fragrance to occur.
# Samples are stored at 37°C overnight, then are cooled to 4°C and then allowed to stand in direct sunlight, for the rest of the day, being returned to 37°C. In addition bottles are opened before and after the 37°C incubation. This daily cycle is repeated for 7 days and the aromas of each assessed.
# Water solubility = assay type: physicochemical
# Description: In contrast, conventional melanins are virtually insoluble. Our melanin derived from caffeic acid has a solubility of about 220g/l. Since caffeic acid has a solubility of below 1g/l, and polymerisation generally leads to a reduction in solubility, this is quite remarkable.
# skin = assay: Surfactant sensitivity: skin irritation by 24 hour SLES patch, skin colour by Chroma Meter; assay type: in vivo, human
# Experimental: The effectiveness of our melanin in reducing skin irritation due to a surfactant was investigated. Two human subjects were used. The effect of applying to skin for 24 hours a patch containing a 70% solution of sodium lauryl ether sulphate ('SLES') was compared with the effect of applying an identical patch also containing 0.3% of our melanin ('M'). The colour of the treated skin was monitored for several days using a Chroma Meter. The changes in degrees of redness are tabulated below.
compound,measurement,setting,value
"Cc1cc(C(C)(C)C)c(O)c(C(C)(C)C)c1 [BHT, butyrated hydroxytoluene]",fragrance stability (aroma),[1],markedly superior to the control
O=C(O)/C=C/c1ccc(O)c(O)c1 [caffeic acid],solubility,Water solubility,< 1000 µg/mL
sodium lauryl ether sulphate [SLES],Redness Change,"skin; Subject 1, Day 1, patch applied for 24 hours",+6.3
same,Redness Change,"skin; Subject 1, Day 2",+4.2
same,Redness Change,"skin; Subject 1, Day 6",+0.3
same,Redness Change,"skin; Subject 2, Day 1, patch applied for 24 hours",+3.5
same,Redness Change,"skin; Subject 2, Day 2",+2.3
same,Redness Change,"skin; Subject 2, Day 7",+0.6

# From patent EP1301165B1, “USE OF AN ALLOMELANIN FOR THE TREATMENT OF INFLAMMATION OR IRRITANCY CAUSED BY DHA AND/OR A SURFACTANT” (Croda Chemicals International Limited, priority 2000, dated 2002)
